Data as given in PubChem BioAssay (NCI).
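48-hour exposure; five concentrations; linearly interpolated endpoints. TGI marks complete inhibition of growth.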

How the values were obtained:
Assay in all cases: growth of human tumour cells (NCI), 48 h
A498 renal = system: A498 renal
A549 NSCLC = system: A549 NSCLC
EKVX NSCLC = system: EKVX NSCLC
HCT-116 colon = system: HCT-116 colon
HOP-92 NSCLC = system: HOP-92 NSCLC
MDA-MB-435 = system: MDA-MB-435
MDA-N = system: MDA-N
MOLT-4 leukemia = system: MOLT-4 leukemia
NCI-H23 lung = system: NCI-H23 lung
NCI-H460 lung = system: NCI-H460 lung
RXF 393 renal = system: RXF 393 renal
SK-MEL-5 melanoma = system: SK-MEL-5 melanoma
SK-OV-3 ovarian = system: SK-OV-3 ovarian
SW-620 colon = system: SW-620 colon
T-47D breast = system: T-47D breast
U251 CNS = system: U251 CNS
ACHN renal = system: ACHN renal
K-562 leukemia = system: K-562 leukemia
PC-3 prostate = system: PC-3 prostate

Measured: TGI

Cc1c(N2C(=O)/C(=C/c3ccc(N(CCC#N)CCC#N)cc3)N=C2c2ccccc2)c(=O)n(-c2ccccc2)n1C
not listed: ACHN renal | K-562 leukemia | PC-3 prostate
> 100 µM: all other assays above

CCOC(=O)c1cc(C2CCN(c3ccccc3)C2=O)c(C(=O)/C=C(/C)N)[nH]1 (configuration not stated)
27.9 µM: HCT-116 colon
50.7 µM: SK-OV-3 ovarian
36.4 µM: U251 CNS
78.6 µM: RXF 393 renal
not listed: HOP-92 NSCLC
> 100 µM: all other assays above

CC1(C)CC(=O)c2c(nc3c(ccc4ccccc43)c2-c2ccc(NC(=O)CCCCC(=O)Nc3ccc(-c4c5c(nc6c4ccc4ccccc46)CC(C)(C)CC5=O)cc3)cc2)C1
68.3 µM: MDA-N
55.9 µM: MOLT-4 leukemia
91.8 µM: NCI-H460 lung
74.6 µM: HCT-116 colon
69.1 µM: ACHN renal
67.5 µM: EKVX NSCLC
not listed: A498 renal | HOP-92 NSCLC | NCI-H23 lung
> 100 µM: all other assays above

NC1Cc2ccccc2OC1=O (configuration not stated)
not listed: A498 renal | HCT-116 colon | HOP-92 NSCLC | MDA-N
> 100 µM: all other assays above

COc1ccc(N2C(=O)C3c4[nH]c5ccc(F)cc5c4C4CCC(C(C)(C)C)CC4C3C2=O)cc1 (configuration not stated)
not listed: HOP-92 NSCLC | K-562 leukemia
> 10 µM: all other assays above

CC1(C)OC[C@@H](O)[C@H](Br)CO1
not listed: A549 NSCLC | HOP-92 NSCLC | SK-MEL-5 melanoma
> 100 µM: all other assays above

CC1(C)CCCCCC(C)(CCCO)C1=O (configuration not stated)
not listed: MDA-N
> 100 µM: all other assays above

CCC(O)c1ccc(N=Cc2ccccc2O)cc1 (configuration not stated)
not listed: MDA-N
> 100 µM: all other assays above

COc1ccc2nc3n(c2c1)C(=O)c1ccccc1-3
not listed: A498 renal | MDA-MB-435 | T-47D breast
> 100 µM: all other assays above

N#C/C(N)=C(\C#N)N=CNc1ccc(N)cc1
not listed: HOP-92 NSCLC | RXF 393 renal
> 100 µM: all other assays above

COC(=O)[C@@H]1CC(C(CN)c2cn(C(=O)OC(C)(C)C)c3ccccc23)C(=O)N1C(=O)OC(C)(C)C (some centres not stated)
37.3 µM: A498 renal
31.6 µM: SK-MEL-5 melanoma
69.6 µM: MDA-N
37.6 µM: MOLT-4 leukemia
80.2 µM: PC-3 prostate
50.7 µM: MDA-MB-435
46.2 µM: RXF 393 renal
56 µM: NCI-H460 lung
48.4 µM: K-562 leukemia
53.8 µM: EKVX NSCLC
not listed: HOP-92 NSCLC | SK-OV-3 ovarian
> 100 µM: all other assays above

c1ccc2c(c1)ccn1ccc3c4ccccc4nc-3c21
1.65 µM: MDA-MB-435
1.13 µM: EKVX NSCLC
0.415 µM: MOLT-4 leukemia
1.67 µM: PC-3 prostate
3.51 µM: T-47D breast
2.12 µM: NCI-H23 lung
0.567 µM: K-562 leukemia
4.44 µM: HOP-92 NSCLC
1.71 µM: SK-MEL-5 melanoma
2.34 µM: SW-620 colon
2.39 µM: RXF 393 renal
2.9 µM: SK-OV-3 ovarian
1.87 µM: ACHN renal
1.57 µM: A549 NSCLC
0.892 µM: A498 renal
1.47 µM: U251 CNS

S=C(N1CCN(c2cccc(Cl)c2)CC1)N1CCN(c2cccc(Cl)c2)CC1
64.1 µM: MOLT-4 leukemia
not listed: A498 renal | HOP-92 NSCLC | NCI-H460 lung
> 100 µM: all other assays above

Cc1ccc2oc3c(c(Br)c(Br)n3C)c(=O)c2c1
38.1 µM: HOP-92 NSCLC
44.2 µM: EKVX NSCLC
46.3 µM: NCI-H23 lung
35.8 µM: U251 CNS
31.4 µM: RXF 393 renal
32.1 µM: ACHN renal
41.3 µM: A498 renal
51.5 µM: A549 NSCLC
33.9 µM: HCT-116 colon
not listed: MDA-N | NCI-H460 lung | SK-OV-3 ovarian
> 100 µM: all other assays above

CN1C(=O)CC2CCC(=O)N2c2cccnc21 (configuration not stated)
not listed: A498 renal | HOP-92 NSCLC | MOLT-4 leukemia | RXF 393 renal | SK-OV-3 ovarian | PC-3 prostate
> 100 µM: all other assays above

N#Cc1c(-c2ccc(Cl)cc2)c2c(N=Nc3c(O)ccc4ccccc34)[nH]nc2[nH]c1=O
0.468 µM: A498 renal
0.851 µM: NCI-H460 lung
0.878 µM: RXF 393 renal
1.62 µM: HCT-116 colon | SK-MEL-5 melanoma
2.05 µM: PC-3 prostate
2.08 µM: MDA-N
1.58 µM: SK-OV-3 ovarian
1.34 µM: MOLT-4 leukemia
1.56 µM: U251 CNS
2.19 µM: EKVX NSCLC
2.3 µM: A549 NSCLC
0.492 µM: ACHN renal
0.865 µM: HOP-92 NSCLC
2.31 µM: SW-620 colon
> 20.7 µM: K-562 leukemia

COC1CCC(=O)N1CN(C(C)=O)c1ccc(C)cc1 (configuration not stated)
not listed: A498 renal | EKVX NSCLC | HOP-92 NSCLC
> 100 µM: all other assays above

CCCC1(CCC)c2cc(/C=N\O)ccc2-c2ccc(-c3ccc(C(C)(C)C)cc3)cc21
60.9 µM: MOLT-4 leukemia
54.8 µM: HCT-116 colon
not listed: A498 renal | MDA-MB-435 | RXF 393 renal | U251 CNS
> 100 µM: all other assays above

CCn1c(=O)c2nc(SC)sc2n(-c2ccccc2)c1=O
not listed: A498 renal | EKVX NSCLC
> 100 µM: all other assays above

COc1nc2c(c(=O)n1C)N=C(c1ccc(Cl)cc1)CC(c1ccccc1)N2 (configuration not stated)
54.2 µM: K-562 leukemia
69.2 µM: EKVX NSCLC
49.6 µM: MOLT-4 leukemia
38.2 µM: SK-MEL-5 melanoma
55 µM: RXF 393 renal
69.1 µM: NCI-H23 lung
54 µM: ACHN renal
63.5 µM: HCT-116 colon
28.1 µM: NCI-H460 lung
37.8 µM: MDA-N
not listed: T-47D breast
> 100 µM: all other assays above

CCOC(=O)Cc1cnc(NC(NC(=O)CC)(C(F)(F)F)C(F)(F)F)s1
not listed: A549 NSCLC | HOP-92 NSCLC | SK-MEL-5 melanoma | SW-620 colon | PC-3 prostate
> 100 µM: all other assays above

NC(=Nc1cccc(Cl)c1)c1ccccc1N
not listed: HOP-92 NSCLC | T-47D breast
> 100 µM: all other assays above

CCOC(=O)c1c(N2CCCC2)ncn(C)c1=S
not listed: MDA-N | SK-OV-3 ovarian
> 100 µM: all other assays above

CNC(=O)OC(COC)CN1CCN(c2ccccc2C)CC1 (configuration not stated)
not listed: MDA-N
> 10 µM: all other assays above

O=C1CSC2=NC3=C(CSC/C3=C\c3ccccc3)C(c3ccccc3)N12 (configuration not stated)
not listed: A498 renal | RXF 393 renal
> 100 µM: all other assays above

CCn1c2ccccc2c2ccc(C3C(C(=O)OC)=C(C)NC(C)=C3C(=O)OC)cc21
49.4 µM: RXF 393 renal
46 µM: A498 renal
not listed: HOP-92 NSCLC | PC-3 prostate
> 100 µM: all other assays above

CC/C=C/C[C@H](O)[C@H]1C[C@H]2O[C@H](CC(=O)OC)C[C@H]2O1
not listed: HOP-92 NSCLC
> 100 µM: all other assays above

COc1ccc2c3c([nH]c2c1)CCN(Cc1ccccc1)C3
46.5 µM: A498 renal
73.7 µM: MOLT-4 leukemia
53.4 µM: U251 CNS
32.6 µM: SK-MEL-5 melanoma
25.6 µM: HOP-92 NSCLC
60.6 µM: MDA-MB-435
69.1 µM: T-47D breast
51.7 µM: SW-620 colon
51.3 µM: K-562 leukemia
50.7 µM: RXF 393 renal
37.7 µM: NCI-H460 lung
not listed: MDA-N | PC-3 prostate
> 100 µM: all other assays above
